Measurements: PubChem BioAssay AID330 (DTP/NCI, 2004)
“And” between values parts separate entries of the source, which are not always exact repeats. Identical values can stand only once. Toxic doses and inconclusive results are not listed.

System: P388 leukemia ip, CD2F1 mice, survival T/C
Experiment: NCI In Vivo Anticancer Drug Screen. Data for tumor model P388 Leukemia (intraperitoneal) in CD2F1 (CDF1) mice
Settings: endpoint: median survival time, higher = longer survival
How it was run: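 Mice carrying the transplanted tumor received test compound or vehicle. Survival was recorded in each group, and the value is the treated-group measurement divided by that of the vehicle-treated control group.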

[1] = dose: 100.0 mg/kg/injection, schedule: Q01DX009 (ip), vehicle: saline with Tween-80
[2] = dose: 200.0 mg/kg/injection, schedule: Q01DX009 (ip), vehicle: saline with Tween-80
[3] = dose: 50.0 mg/kg/injection, schedule: Q04DX003 (ip), vehicle: suspension in saline
[4] = dose: 100.0 mg/kg/injection, schedule: Q04DX003 (ip), vehicle: suspension in saline
[5] = dose: 50.0 mg/kg/injection, schedule: Q01DX005 (ip), vehicle: saline with Tween-80
[6] = dose: 100.0 mg/kg/injection, schedule: Q01DX005 (ip), vehicle: saline with Tween-80
[7] = dose: 200.0 mg/kg/injection, schedule: Q01DX005 (ip), vehicle: saline with Tween-80
[8] = dose: 50.0 mg/kg/injection, schedule: Q01DX009 (ip), vehicle: saline with Tween-80
[9] = dose: 50.0 mg/kg/injection, schedule: Q01DX009 (ip), vehicle: saline
[10] = dose: 12.5 mg/kg/injection, schedule: Q01DX009 (ip), vehicle: water
[11] = dose: 25.0 mg/kg/injection, schedule: Q01DX009 (ip), vehicle: water
[12] = dose: 120.0 mg/kg/injection, schedule: Q01DX005 (ip), vehicle: saline with Tween-80
[13] = dose: 240.0 mg/kg/injection, schedule: Q01DX005 (ip), vehicle: saline with Tween-80
[14] = dose: 60.0 mg/kg/injection, schedule: Q01DX005 (ip), vehicle: saline with Tween-80

SMILES: Cc1ccc(NS(=O)(=O)c2ccc([N+](=O)[O-])cc2)c(C)c1
- T/C [1]: 100 % of control
- T/C [2]: 105 % of control
- T/C (dose: 400.0 mg/kg/injection, schedule: Q01DX009 (ip), vehicle: saline with Tween-80): 115 % of control

SMILES: S=C1NCC(c2ccccc2)(c2ccccc2)N1
- T/C (dose: 6.25 mg/kg/injection, schedule: Q04DX003 (ip), vehicle: Klucel (hydroxypropylcellulose) (HPC)): 103 % of control
- T/C (dose: 12.5 mg/kg/injection, schedule: Q04DX003 (ip), vehicle: Klucel (hydroxypropylcellulose) (HPC)): 98 % of control

SMILES: O=C1CSC(=S)N1/N=C/c1ccc(Cl)c(Cl)c1
- T/C (dose: 1.56 mg/kg/injection, schedule: Q01DX009 (ip), vehicle: saline with Tween-80): 100 % of control
- T/C (dose: 3.13 mg/kg/injection, schedule: Q01DX009 (ip), vehicle: saline with Tween-80): 110 % of control
- T/C (dose: 6.25 mg/kg/injection, schedule: Q01DX009 (ip), vehicle: saline with Tween-80): 120 % of control

SMILES: FC(F)(F)C1=C(C(F)(F)F)OP2(Oc3ccccc3)(O1)Oc1ccccc1O2
- T/C (dose: 25.0 mg/kg/injection, schedule: Q04DX003 (ip), vehicle: suspension in saline): 102 % of control
- T/C [3]: 101 % of control
- T/C [4]: 97 % of control

SMILES: Cn1c(=O)c2c(c3ccccc31)OC(C)(C)C=C2
- T/C [5]: 100 % of control
- T/C [6]: 100 % of control
- T/C [7]: 105 % of control

SMILES: c1ccc(N=NC2=NN(c3ccccc3)CCS2)cc1
- T/C (dose: 25.0 mg/kg/injection, schedule: Q01DX009 (ip), vehicle: saline with Tween-80): 102 % of control and 107 % of control
- T/C [8]: 102 % of control and 116 % of control
- T/C [1]: 101 % of control and 107 % of control
- T/C [2]: 100 % of control and 110 % of control

SMILES: O=C(O)C1[S][Sb]([CH](C(=O)O)[CH](C(=O)O)[Sb]2[S]C(C(=O)O)C(C(=O)O)[S]2)[S]C1C(=O)O (stereo not given)
- T/C [9]: 100 % of control
- T/C (dose: 100.0 mg/kg/injection, schedule: Q01DX009 (ip), vehicle: saline): 98 % of control
- T/C (dose: 200.0 mg/kg/injection, schedule: Q01DX009 (ip), vehicle: saline): 108 % of control

SMILES: Cc1ccc(-c2cs/c(=N\N=C3/CSC(=O)N3Cc3ccccc3)n2-c2cccc(C)c2)cc1
- T/C (dose: 100.0 mg/kg/injection, schedule: Q04DX002 (ip), vehicle: Klucel (hydroxypropylcellulose) (HPC)): 89 % of control
- T/C (dose: 200.0 mg/kg/injection, schedule: Q04DX002 (ip), vehicle: Klucel (hydroxypropylcellulose) (HPC)): 89 % of control
- T/C (dose: 400.0 mg/kg/injection, schedule: Q04DX002 (ip), vehicle: Klucel (hydroxypropylcellulose) (HPC)): 91 % of control

SMILES: CSc1nc2c(Br)cnn2c(=O)[nH]1
- T/C (dose: 100.0 mg/kg/injection, schedule: Q01DX001 (ip), vehicle: saline with Tween-80): 94 % of control
- T/C (dose: 200.0 mg/kg/injection, schedule: Q01DX001 (ip), vehicle: saline with Tween-80): 101 % of control
- T/C (dose: 400.0 mg/kg/injection, schedule: Q01DX001 (ip), vehicle: saline with Tween-80): 100 % of control

SMILES: CCCCCCCCCCCCCCCC(=O)N(CCCCCCCCCN(CCCN(C)C)C(=O)CCCCCCCCCCCCCCC)CCCN(C)C
- T/C (dose: 3.13 mg/kg/injection, schedule: Q01DX009 (ip), vehicle: water): 108 % of control
- T/C (dose: 6.25 mg/kg/injection, schedule: Q01DX009 (ip), vehicle: water): 109 % of control
- T/C [10]: 105 % of control
- T/C [11]: 93 % of control and 96 % of control
- T/C (dose: 50.0 mg/kg/injection, schedule: Q01DX009 (ip), vehicle: water): 103 % of control

SMILES: COC(=O)NC1CC=CCC1I (stereo not given)
- T/C (dose: 12.5 mg/kg/injection, schedule: Q01DX009 (ip), vehicle: saline): 96 % of control
- T/C (dose: 25.0 mg/kg/injection, schedule: Q01DX009 (ip), vehicle: saline): 105 % of control
- T/C [9]: 106 % of control

SMILES: CC1=CC2N(C=C1)C(c1ccc(Cl)cc1)=NON2c1cc(C)ccn1 (stereo not given)
- T/C [5]: 92 % of control
- T/C [6]: 86 % of control and 94 % of control
- T/C [12]: 87 % of control
- T/C [7]: 100 % of control
- T/C [13]: 93 % of control

SMILES: COC(=O)c1cc2c(cc1/C=C/C=O)OCO2
- T/C [14]: 100 % of control
- T/C [12]: 109 % of control
- T/C [13]: 109 % of control

SMILES: Cc1cc(C)c2ccc(NN=O)nc2n1
- T/C (dose: 3.12 mg/kg/injection, schedule: Q01DX009 (ip), vehicle: water): 118 % of control
- T/C [10]: 163 % of control
- T/C [11]: 167 % of control and 169 % of control

SMILES: CC1(O)CC23CC(O)C4(O)C(CC(O)C4(C)C)C(C)(O)C2CCC1C3O (stereo not given)
- T/C (dose: 0.25 mg/kg/injection, schedule: Q01DX009 (ip), vehicle: Klucel (hydroxypropylcellulose) (HPC)): 97 % of control
- T/C (dose: 0.5 mg/kg/injection, schedule: Q01DX009 (ip), vehicle: Klucel (hydroxypropylcellulose) (HPC)): 103 % of control

SMILES: Cc1cc2c(c3ncccc13)OCN(Cc1ccc(Cl)c(Cl)c1)C2
- T/C [8]: 100 % of control
- T/C [1]: 98 % of control
- T/C [2]: 100 % of control

SMILES: CCCCCc1cc(O)c2c(c1)OC(C)(C)c1ccc(C)cc1-2
- T/C (dose: 64.0 mg/kg/injection, schedule: Q01DX009 (ip), vehicle: saline): 115 % of control
- T/C (dose: 128.0 mg/kg/injection, schedule: Q01DX009 (ip), vehicle: saline): 97 % of control
- T/C (dose: 256.0 mg/kg/injection, schedule: Q01DX009 (ip), vehicle: saline): 109 % of control
- T/C (dose: 512.0 mg/kg/injection, schedule: Q01DX009 (ip), vehicle: saline): 106 % of control

SMILES: CCOC(=O)c1cnc2cc(F)ccc2c1Nc1ccc2c(c1)OCO2
- T/C (dose: 60.0 mg/kg/injection, schedule: Q01DX005 (ip), vehicle: Klucel (hydroxypropylcellulose) (HPC)): 99 % of control
- T/C (dose: 120.0 mg/kg/injection, schedule: Q01DX005 (ip), vehicle: Klucel (hydroxypropylcellulose) (HPC)): 97 % of control
- T/C (dose: 240.0 mg/kg/injection, schedule: Q01DX005 (ip), vehicle: Klucel (hydroxypropylcellulose) (HPC)): 105 % of control

SMILES: O=C(NNc1ncccn1)c1ccc(C(=O)NNc2ncccn2)cc1
- T/C (dose: 7.5 mg/kg/injection, schedule: Q01DX005 (ip), vehicle: saline with Tween-80): 94 % of control
- T/C (dose: 15.0 mg/kg/injection, schedule: Q01DX005 (ip), vehicle: saline with Tween-80): 93 % of control

SMILES: O=C(Cn1cnc2ccc([N+](=O)[O-])cc21)N1CCN(c2ccccc2)CC1
- T/C [14]: 93 % of control
- T/C [12]: 93 % of control

SMILES: O=C(OCC1N=C1c1ccccc1)c1ccc([N+](=O)[O-])cc1 (stereo not given)
- T/C [3]: 99 % of control
- T/C [4]: 98 % of control
- T/C (dose: 200.0 mg/kg/injection, schedule: Q04DX003 (ip), vehicle: suspension in saline): 100 % of control

SMILES: COc1ccccc1N=NNc1ccc(S(=O)(=O)NC(C)=O)cc1
- T/C (dose: 50.0 mg/kg/injection, schedule: Q01DX005 (ip), vehicle: Klucel (hydroxypropylcellulose) (HPC)): 107 % of control
- T/C (dose: 100.0 mg/kg/injection, schedule: Q01DX005 (ip), vehicle: Klucel (hydroxypropylcellulose) (HPC)): 114 % of control

SMILES: CC/C(=N\NC(=S)SC)c1ccccc1
- T/C [8]: 91 % of control
- T/C [1]: 100 % of control
- T/C [2]: 97 % of control

SMILES: COP(=O)(CC(=O)CCCCCOC1CCCCO1)OC (stereo not given)
- T/C (dose: 50.0 mg/kg/injection, schedule: Q01DX005 (ip), vehicle: saline): 100 % of control
- T/C (dose: 100.0 mg/kg/injection, schedule: Q01DX005 (ip), vehicle: saline): 100 % of control
- T/C (dose: 200.0 mg/kg/injection, schedule: Q01DX005 (ip), vehicle: saline): 99 % of control

SMILES: COC1=CC(=O)c2c(O)c3c(c(O)c2C1=O)OC1(Oc2c(cc4cc(C)oc(=O)c4c2O)CC1O)C3O (stereo not given)
- T/C (dose: 3.0 mg/kg/injection, schedule: Q01DX009 (ip), vehicle: Klucel (hydroxypropylcellulose) (HPC)): 100 % of control
- T/C (dose: 6.0 mg/kg/injection, schedule: Q01DX009 (ip), vehicle: Klucel (hydroxypropylcellulose) (HPC)): 117 % of control
- T/C (dose: 12.0 mg/kg/injection, schedule: Q01DX009 (ip), vehicle: Klucel (hydroxypropylcellulose) (HPC)): 99 % of control
- T/C (dose: 24.0 mg/kg/injection, schedule: Q01DX009 (ip), vehicle: Klucel (hydroxypropylcellulose) (HPC)): 99 % of control

SMILES: Cc1c(N=Nc2cccc(F)c2)c(-c2ccccc2)nn1C(=S)S
- T/C [5]: 117 % of control
- T/C [6]: 111 % of control
- T/C [7]: 104 % of control

SMILES: COC(=O)C(Cc1ccccc1)NC(=O)C(Cc1cnc[nH]1)N(C(=O)OCc1ccccc1)C(=O)OCc1ccccc1 (stereo not given)
- T/C (dose: 25.0 mg/kg/injection, schedule: Q01DX005 (ip), vehicle: saline with Tween-80): 88 % of control
- T/C [5]: 91 % of control
- T/C [6]: 87 % of control
- T/C [7]: 89 % of control

SMILES: CNC(=S)C(N)CCCC1NC(=S)N(C)C1=O (stereo not given)
- T/C [14]: 99 % of control
- T/C [12]: 89 % of control
- T/C [13]: 88 % of control

SMILES: CC(C)(C)CC(C)(C)c1ccc(OCc2ccccc2Cl)cc1
- T/C [8]: 98 % of control
- T/C [1]: 95 % of control
- T/C [2]: 100 % of control
